Results: PMC12446627, “Novel Thioredoxin reductase 1 inhibitor BS1801 relieves treatment resistance and triggers endoplasmic reticulum stress by elevating reactive oxygen species in glioma” (Redox Biology, 2025)
Read-outs that look alike come from different tables or passages of the source.

Tests used:
[1] = molecular target: T1, Thioredoxin reductase 1 (TrxR1) (Homo sapiens, UniProt Q16881)
T1 construct: gene TXNRD1

[2] = molecular target: T1, Thioredoxin reductase 1 (TrxR1); test: biochemical

T1 sequence (Q16881 whole entry): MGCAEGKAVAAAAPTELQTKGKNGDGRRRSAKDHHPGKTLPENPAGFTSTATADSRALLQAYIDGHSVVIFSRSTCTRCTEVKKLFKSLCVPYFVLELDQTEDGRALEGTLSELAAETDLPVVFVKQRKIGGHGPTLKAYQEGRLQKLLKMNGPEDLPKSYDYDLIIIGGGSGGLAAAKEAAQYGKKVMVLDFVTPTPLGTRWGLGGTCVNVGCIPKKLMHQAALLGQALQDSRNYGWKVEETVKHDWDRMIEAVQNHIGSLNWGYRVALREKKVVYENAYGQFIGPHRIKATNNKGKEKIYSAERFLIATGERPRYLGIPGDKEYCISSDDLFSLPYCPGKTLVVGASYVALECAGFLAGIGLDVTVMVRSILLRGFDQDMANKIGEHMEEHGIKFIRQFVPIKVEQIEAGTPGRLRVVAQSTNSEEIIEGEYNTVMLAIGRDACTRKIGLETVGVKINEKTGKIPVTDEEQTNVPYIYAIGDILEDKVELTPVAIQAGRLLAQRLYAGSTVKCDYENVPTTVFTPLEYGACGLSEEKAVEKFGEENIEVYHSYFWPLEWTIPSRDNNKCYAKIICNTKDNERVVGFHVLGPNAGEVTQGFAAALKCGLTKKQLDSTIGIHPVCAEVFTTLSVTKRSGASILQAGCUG

Row | SMILES | Kd [1] [µM] | Kd [2] [µM]
1 | CC[P](CC)(CC)=[Au][S][C@@H]1O[C@H](COC(C)=O)[C@@H](OC(C)=O)[C@H](OC(C)=O)[C@H]1OC(C)=O [auranofin] | 5.07 | 
2 | O=c1c2ccccc2[se]n1CCCCn1[se]c2ccccc2c1=O [BS1801, 2,2'-(butane-1,4-diyl)bis(benzo[d] [1,2]selenazol-3(2H)-one)] |  | 2.44
